In US20090233895A1, “METHOD OF TREATMENT OF BACTERIAL INFECTIONS” (Ethypharm, priority 2006, published 2009):

Tests used:
E. coli GR2 = test: modified Hollow T-Tube in vitro model simulating antibacterial treatment with oral cefaclor in humans over 24 hours; type: cell-based, Escherichia coli; conditions: for Observed Δt > MIC / Δt > MIC: percentage of the dosage interval
Description: The bacteria stem from one strain of Escherichia coli, species that is considered to be non-constantly sensitive. The strain was obtained from M.-H. Nicolas (Hôpital Ambroise Paré, Paris, France) under the code E. coli GR2 with MIC of […]. The usual breakpoints with cefaclor for E. coli are ≦2 mg/l for sensitive strains and >8 mg/l for resistant strains, according to CA-SFM (Comité de l'Antibiogramme de la Société Française de Microbiologie).
The culture media is a Müller-Hinton Broth (MHB) obtained from Pasteur diagnostic (reference 69444). The starting inoculum of E. coli in the culture media is 10^7±5% CFU/ml. The E. coli concentration is measured by nephelometry (Densimat, ref. 99535 ver. A, Biomérieux, France) and standard dilution method.
(§1) The counting of E. coli present in the culture medium was measured in vitro in a model simulating the antibacterial treatment with oral beta-lactamine in humans over 24 hours.
(§2) The model simulating the antibacterial treatment used in the examples is a modified “Hollow T-Tube”-model, originally described by Cappellety et al. (Pharmacodynamics of ceftazidime administered as continuous infusion or intermittent bolus alone or in combination with single daily-dose amikacine against Pseudomonas aeruginosa in an in vitro infection model, A.A.C., 1995, 33: 1797-1801) and modified by the inventors (Louchahi et al. A procedure to mimic human impaired kinetic profiles of antibiotics with the hollow glass T-tube in vitro pharmacodynamic model, Abstract no 2116, p. 234, 39th ICAAC, Sep. 26-29, 1999, San Francisco).
In all experiments the period during which, after the addition of cefaclor, the concentration of cefaclor was above the MIC was measured (Δt>MIC). The result is expressed as percentage of the dosage interval.
The variation of the bacterial count was regularly registered during 24 hours. The result is expressed as ΔUFC/ml. For every experiment, the negative sign is highlighting the decreasing count with time since it corresponds to the difference between the initial inoculum at T0 and final bacterial count at T 24 h.

[1] = cefaclor concentration profile (t1/2, cmax) observed in the modified Hollow T-Tube in vitro model
Description: as §1, §2
Three different elimination half-lives were simulated: • 1. t1/2=45-50 min, which corresponds to a conventional immediate release form of cefaclor, • 2. t1/2=55-60 min, which corresponds to a conventional sustained release form of cefaclor, • 3. t1/2=90-100 min, which corresponds to an extended release form of cefaclor according to the present invention.

[2] = E1.1: expected t1/2 45-50 min, 500 mg, interval 8 h
[3] = E1.2: expected t1/2 55-60 min, 750 mg, interval 12 h
[4] = E1.3: expected t1/2 90-100 min, 500 mg, interval 8 h
[5] = E1.4: expected t1/2 90-100 min, 750 mg, interval 12 h
[6] = E1.5: expected t1/2 90-100 min, 750 mg, interval 8 h
[7] = E2.1: simulated poor absorber, 500 mg, interval 8 h
[8] = E2.2: simulated standard absorber, 500 mg, interval 8 h
[9] = E2.3: simulated good absorber, 500 mg, interval 8 h

Structure (SMILES): N[C@@H](C(=O)N[C@@H]1C(=O)N2C(C(=O)O)=C(Cl)CS[C@H]12)c1ccccc1 [cefaclor, cefaclor monohydrate]
- Δ UFC/ml by 24 h (E. coli GR2; [2]): −1.5 log
- Observed Δt > MIC (E. coli GR2; [2]): 50%
- Δ UFC/ml by 24 h (E. coli GR2; [3]): −1.5 log
- Observed Δt > MIC (E. coli GR2; [3]): 30-35%
- Δ UFC/ml by 24 h (E. coli GR2; [4]): −4 log
- Observed Δt > MIC (E. coli GR2; [4]): 75%
- Δ UFC/ml by 24 h (E. coli GR2; [5]): −1.5 log
- Observed Δt > MIC (E. coli GR2; [5]): 58%
- Δ UFC/ml by 24 h (E. coli GR2; [6]): >−5 log
- Observed Δt > MIC (E. coli GR2; [6]): 87%
- Δ UFC/ml by 24 h (E. coli GR2; [7]): −3 log
- Δt > MIC (E. coli GR2; [7]): 50%
- Δ UFC/ml by 24 h (E. coli GR2; [8]): −4 log
- Δt > MIC (E. coli GR2; [8]): 75%
- Δ UFC/ml by 24 h (E. coli GR2; [9]): −5 log
- Δt > MIC (E. coli GR2; [9]): 87%
- Observed t1/2 ([1]; E1.1: expected t1/2 45-50 min, 500 mg cefaclor, dosage interval 8 h): 0.767 h
- Observed t1/2 ([1]; E1.2: expected t1/2 55-60 min, 750 mg cefaclor, dosage interval 12 h): 0.967 h
- Observed t1/2 ([1]; E1.3: expected t1/2 90-100 min, 500 mg cefaclor, dosage interval 8 h): 1.67 h
- Observed t1/2 ([1]; E1.4: expected t1/2 90-100 min, 750 mg cefaclor, dosage interval 12 h): 1.68 h
- Observed t1/2 ([1]; E1.5: expected t1/2 90-100 min, 750 mg cefaclor, dosage interval 8 h): 1.53 h
- Observed t1/2 ([1]; E2.1: simulated poor absorber, expected t1/2 90-100 min, 500 mg, interval 8 h): 1.6 h
- Observed t1/2 ([1]; E2.2: simulated standard absorber, expected t1/2 90-100 min, 500 mg, interval 8 h): 1.67 h
- Observed t1/2 ([1]; E2.3: simulated good absorber, expected t1/2 90-100 min, 500 mg, interval 8 h): 1.53 h
